# Data taken from patent publication US11840686B2, “Modulation of prekallikrein (PKK) expression” (Ionis Pharmaceuticals, Inc., priority 2013, dated 2023).
# Strand notation (5' to 3'): a small letter for the sugar, then the base; units joined by * are phosphorothioate-linked, units joined directly phosphodiester-linked; [ ] holds rarer units or linkages, { } end groups; capitals alone tell only the bases. e = 2'-O-(2-methoxyethyl) (MOE); [5mC] = 5-methylcytosine; d = 2'-deoxy (DNA)
# Tested on: human PKK mRNA
# Assay: Antisense inhibition of human PKK mRNA in HepaRG cells, 5,000 nM (Example 2)
# Format: cell-based
# Settings: HepaRG cells, 5,000 nM antisense oligonucleotide, human PKK mRNA; Table 18
# Summary of the method: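 Percent inhibition of PKK mRNA is reported relative to untreated cells, after adjustment for total RNA by RIBOGREEN. Gapmers of 16–20 nucleosides with 2′-MOE wings were delivered at 5,000 nM by electroporation into HepaRG cells and left for roughly 24 hours before RNA isolation.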
row,Substance,% inhibition
1,548715 (DNA eA*eT*e[5mC]*dA*d[5mC]*dT*dG*dT*dA*d[5mC]*dT*dA*dG*eT*eT*eT; antisense) [compound 548715],0%
2,548714 (DNA eT*e[5mC]*eA*d[5mC]*dT*dG*dT*dA*d[5mC]*dT*dA*dG*dT*eT*eT*e[5mC]; antisense) [compound 548714],15%

# Same assay, conditions: HepaRG cells, 5,000 nM antisense oligonucleotide; 5-10-5 gapmers; Table 16
row,Substance,% inhibition
1,547700 (antisense eG*eT*eA*e[5mC]*e[5mC]*dT*dA*dT*dA*dA*d[5mC]*dT*dA*dT*dA*eA*e[5mC]*eA*eA*eT) [compound 547700],0%
2,547696 (antisense e[5mC]*eA*e[5mC]*eT*eG*dT*d[5mC]*d[5mC]*dT*dA*dT*dA*dA*d[5mC]*dT*eA*eT*eT*eA*e[5mC]) [compound 547696],26%
3,547698 (antisense eA*e[5mC]*e[5mC]*eT*eA*dT*dA*dA*d[5mC]*dT*dA*dT*dA*dA*d[5mC]*eA*eA*eT*eA*eT) [compound 547698],0%
4,547679 (antisense eT*eG*eT*eA*e[5mC]*d[5mC]*dT*dA*dT*dA*dT*d[5mC]*dA*d[5mC]*dT*eG*eT*eA*eA*e[5mC]) [compound 547679],28%
5,546964 (eG*e[5mC]*eG*eA*eT*dT*d[5mC]*d[5mC]*dT*dT*dG*d[5mC]*d[5mC]*dT*d[5mC]*eT*eG*e[5mC]*eT*eG; antisense) [compound 546964],53%
6,546994 (eG*eT*eT*e[5mC]*eA*dT*dG*dT*dG*dG*d[5mC]*dA*dA*d[5mC]*d[5mC]*eT*eG*eT*eG*eA; antisense) [compound 546994],58%
7,547697 (antisense eT*e[5mC]*eA*e[5mC]*eT*dG*dT*d[5mC]*d[5mC]*dT*dA*dT*dA*dA*d[5mC]*eT*eA*eT*eT*eA) [compound 547697],63%

# Same assay, conditions: HepaRG cells, 5,000 nM antisense oligonucleotide; 5-10-5 gapmers; Table 17
row,Substance,% inhibition
1,547035 (eT*eG*eG*eT*e[5mC]*d[5mC]*d[5mC]*dA*dA*dA*dT*dT*dG*dG*dA*eG*eT*eG*e[5mC]*eA; antisense) [compound 547035],40%
2,547762 (antisense eT*eG*eA*eA*eA*d[5mC]*dT*dG*dG*dG*d[5mC]*dA*dG*dT*d[5mC]*e[5mC]*eT*eT*e[5mC]*e[5mC]) [compound 547762],0%
3,547021 (eT*eT*eG*eG*eT*dG*dG*d[5mC]*dG*dG*dG*dA*dT*d[5mC]*dG*eG*eT*eG*eG*eT; antisense) [compound 547021],57%
4,547015 (eG*eG*eT*eG*eG*dT*dG*dG*dG*dA*dT*dT*dG*dG*dT*eG*e[5mC]*eT*eG*eA; antisense) [compound 547015],55%

# Same assay, conditions: HepaRG cells, electroporation with 5,000 nM antisense oligonucleotide, approximately 24 hours, PKK mRNA by RT-PCR (RTS3454), relative to untreated control cells; Table 5 experiment
row,Substance,% inhibition
1,546153 (eG*eG*eG*eT*eG*dT*dA*d[5mC]*dA*dT*dG*dG*dA*dA*dG*e[5mC]*eT*eA*e[5mC]*eA; antisense) [compound 546153],76%
2,547308 (antisense eT*e[5mC]*eA*eA*eG*dA*dA*dG*d[5mC]*dA*dA*d[5mC]*d[5mC]*dA*dA*eA*e[5mC]*e[5mC]*eT*eT) [compound 547308],66%
3,546157 (eG*eG*eG*eT*eG*dG*dA*dA*dT*dG*dT*dG*d[5mC]*dA*d[5mC]*e[5mC]*eT*e[5mC]*eA*eT; antisense) [compound 546157],85%
4,546152 (eG*eT*eA*e[5mC]*eA*dT*dG*dG*dA*dA*dG*d[5mC]*dT*dA*d[5mC]*eA*eT*e[5mC]*e[5mC]*e[5mC]; antisense) [compound 546152],73%

# Same assay, conditions: HepaRG cells, electroporation with 5,000 nM antisense oligonucleotide, approximately 24 hours, PKK mRNA by RT-PCR (RTS3454), relative to untreated control cells; Table 6 experiment
row,Substance,% inhibition
1,547333 (antisense eT*eG*eT*e[5mC]*eT*d[5mC]*dG*dA*dT*dG*dG*d[5mC]*dA*dA*dG*e[5mC]*eA*e[5mC]*eT*eT) [compound 547333],76%
2,547352 (antisense e[5mC]*e[5mC]*eG*eG*eT*dA*d[5mC]*dT*d[5mC]*dT*dG*d[5mC]*d[5mC]*dT*dT*eG*eT*eG*eA*eA) [compound 547352],94%

# Same assay, conditions: HepaRG cells, electroporation, 5,000 nM antisense oligonucleotide, approx. 24 hours, primer probe set RTS3454, relative to untreated control cells; Table 11
row,Substance,% inhibition
1,547527 (antisense e[5mC]*eT*e[5mC]*eA*eG*dT*dT*dG*d[5mC]*dG*dA*d[5mC]*d[5mC]*dT*d[5mC]*eG*e[5mC]*eA*eT*eT) [compound 547527],58%
2,546369 (antisense e[5mC]*eT*e[5mC]*eA*eG*dG*dT*dT*dG*dT*dA*dA*dA*dA*dA*eT*eT*eG*e[5mC]*e[5mC]) [compound 546369],51%
3,547525 (antisense e[5mC]*e[5mC]*eT*e[5mC]*eG*d[5mC]*dA*dT*dT*dG*dT*d[5mC]*dA*dG*d[5mC]*e[5mC]*e[5mC]*e[5mC]*eT*eG) [compound 547525],78%
4,547502 (antisense eT*e[5mC]*eA*eG*eG*dT*dT*dG*dT*dA*dA*dA*dA*dA*dT*eT*eG*e[5mC]*e[5mC]*eT) [compound 547502],64%
5,546393 (eT*e[5mC]*eT*e[5mC]*eA*dG*dT*dT*dG*d[5mC]*dG*dA*d[5mC]*d[5mC]*dT*e[5mC]*eG*e[5mC]*eA*eT; antisense) [compound 546393],77%

# Same assay, conditions: HepaRG cells, electroporation, 5,000 nM antisense oligonucleotide, approx. 24 hours, primer probe set RTS3454, relative to untreated control cells; Table 12
row,Substance,% inhibition
1,547536 (antisense eT*eG*e[5mC]*eA*eT*dA*dG*dA*d[5mC]*d[5mC]*d[5mC]*d[5mC]*dA*dA*d[5mC]*eA*eG*eA*e[5mC]*eA) [compound 547536],48%
2,547557 (e[5mC]*eT*eG*eT*eG*d[5mC]*dT*dG*dT*dA*dT*dT*dT*dT*dG*eG*eA*eG*e[5mC]*e[5mC]; antisense) [compound 547557],59%
3,547550 (antisense e[5mC]*e[5mC]*e[5mC]*e[5mC]*eA*dT*dG*d[5mC]*dA*dT*dA*d[5mC]*dT*d[5mC]*dG*e[5mC]*e[5mC]*eT*eT*eT) [compound 547550],53%
4,547540 (antisense eT*eT*eG*eT*eG*dT*dG*dG*d[5mC]*d[5mC]*d[5mC]*dT*d[5mC]*dT*dT*eA*eA*eG*eT*e[5mC]) [compound 547540],44%
5,547554 (antisense eG*e[5mC]*eT*e[5mC]*eT*dG*dA*dT*dT*dG*dG*dG*dT*d[5mC]*dA*e[5mC]*e[5mC]*eA*e[5mC]*eA) [compound 547554],50%

# Same assay, conditions: Table 7; HepaRG cells, electroporation with 5,000 nM antisense oligonucleotide, approx. 24 hours; PKK mRNA by RT-PCR (RTS3454), relative to untreated control cells
row,Substance,% inhibition
1,547384 (eA*eA*eA*e[5mC]*eA*dT*dT*dT*d[5mC]*dT*dT*dT*dG*dT*dG*eA*e[5mC]*eT*e[5mC]*eG; antisense) [compound 547384],50%
2,546244 (eT*eA*eA*eA*eT*dT*dT*dT*dA*dG*dA*dA*dT*dG*dG*e[5mC]*eA*eG*eG*eG; antisense) [compound 546244],27%
3,546241 (e[5mC]*eA*eG*eG*eT*dA*dA*dA*dG*dT*dT*d[5mC]*dT*dT*dT*eT*eG*e[5mC]*eA*eG; antisense) [compound 546241],69%

# Same assay, conditions: Table 8; HepaRG cells, electroporation with 5,000 nM antisense oligonucleotide, approx. 24 hours; PKK mRNA by RT-PCR (RTS3454), relative to untreated control cells
row,Substance,% inhibition
1,547430 (e[5mC]*eA*eA*eT*e[5mC]*dT*d[5mC]*dA*dA*dA*dG*dA*dG*dT*dA*eA*e[5mC]*e[5mC]*eA*eG; antisense) [compound 547430],70%
2,547432 (e[5mC]*e[5mC]*e[5mC]*eA*eG*dT*dG*dT*dT*dA*d[5mC]*dA*d[5mC]*dA*dA*eT*e[5mC]*eT*e[5mC]*eA; antisense) [compound 547432],90%
3,547435 (antisense e[5mC]*eA*eA*eG*eA*dA*dG*dA*dG*dT*dT*dT*dG*dT*dT*e[5mC]*e[5mC]*eT*e[5mC]*e[5mC]) [compound 547435],85%
4,546275 (eG*eA*eA*e[5mC]*e[5mC]*dA*dT*d[5mC]*d[5mC]*dA*dT*dA*dG*dA*dT*eA*eA*eT*e[5mC]*eT; antisense) [compound 546275],87%

# Same assay, conditions: Table 13; human PKK mRNA in HepaRG cells; 5-10-5 gapmers
row,Substance,% inhibition
1,547560 (eG*eA*e[5mC]*eG*eG*dT*d[5mC]*dA*d[5mC]*d[5mC]*d[5mC]*dA*dG*d[5mC]*d[5mC]*e[5mC]*eT*eG*eA*e[5mC]; antisense) [compound 547560],42%
2,546838 (e[5mC]*eT*eA*eT*eA*dA*d[5mC]*dT*d[5mC]*dT*dA*dA*d[5mC]*dA*dG*eT*eA*eT*e[5mC]*eA; antisense) [compound 546838],43%

# Same assay, conditions: human PKK mRNA in HepaRG cells; 5-10-5 gapmers; Table 14
row,Substance,% inhibition
1,547603 (antisense eT*eA*eT*e[5mC]*eA*d[5mC]*dT*dG*dT*dA*d[5mC]*d[5mC]*dT*dA*dT*eA*eA*e[5mC]*eT*e[5mC]) [compound 547603],41%

# Same assay, conditions: human PKK mRNA, HepaRG cells, 5,000 nM antisense oligonucleotide, Table 18
row,Substance,% inhibition
1,548745 (DNA eA*eT*e[5mC]*eA*d[5mC]*dT*dG*dT*dA*d[5mC]*dT*dA*dG*eT*eT*eT*e[5mC]; antisense) [compound 548745],71%
2,548740 (DNA eT*eG*eT*eA*d[5mC]*dT*dA*dG*dT*dT*dT*d[5mC]*d[5mC]*eT*eA*eT*eA; antisense) [compound 548740],0%

# Same assay, conditions: human PKK mRNA, HepaRG cells; 5-10-5 motif oligonucleotides targeting SEQ ID NO: 1 and 10
row,Substance,% inhibition
1,546888 (eT*e[5mC]*e[5mC]*eT*eA*dT*dG*dT*d[5mC]*dA*d[5mC]*dT*dG*dT*dA*e[5mC]*e[5mC]*eT*eA*eT; antisense) [compound 546888],78%
2,546905 (eT*eA*e[5mC]*e[5mC]*eT*dA*dT*dA*dA*d[5mC]*dA*dG*dT*dA*dT*e[5mC]*eA*e[5mC]*eT*eG; antisense) [compound 546905],65%
